From patent publication USRE46630E1, “Substituted 4-pyridones and their use as inhibitors of neutrophil elastase activity” (Boehringer Ingelheim International GmbH, priority 2012, dated 2017) come the findings set out here.

In the test the target is T1, Human neutrophil elastase (Homo sapiens, UniProt P08246).
T1 construct: purchased Calbiochem 324681
T1 sequence (P08246 30-267): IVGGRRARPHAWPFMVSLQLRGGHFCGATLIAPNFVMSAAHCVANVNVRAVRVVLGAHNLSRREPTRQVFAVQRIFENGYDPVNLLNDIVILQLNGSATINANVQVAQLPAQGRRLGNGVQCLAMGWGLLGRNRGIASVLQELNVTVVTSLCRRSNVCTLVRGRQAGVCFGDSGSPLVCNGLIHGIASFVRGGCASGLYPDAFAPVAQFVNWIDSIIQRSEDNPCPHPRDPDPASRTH
Put plainly: Human Neutrophil Elastase Assay. In kind it is biochemical. Particulars: Neutrophil Elastase assay; substrate MeOSuc-Ala-Ala-Pro-Val-AMC 250 μM; 15 min preincubation, 60 min incubation at room temperature; pH 7.5. In short, it runs like this: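 Run in 100 mM Tris, 500 mM NaCl, pH 7.5 with 0.01% BSA, with compounds prediluted in DMSO then buffer (5% DMSO final). Fluorescence was read at 380 nm excitation/460 nm emission after enzyme inactivation. Values were normalised to inactivated-enzyme (0%) and uninhibited-enzyme (100%) controls.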

Structures are written as SMILES.

With `CNC(=O)c1cn(Cc2ccc(C#N)cc2F)c(C)c(-c2ccnc(C(F)(F)F)c2)c1=O` [Example 42, 1-(4-Cyano-2-fluoro-benzyl)-2-methyl-4-oxo-2′-trifluoromethyl-1,4-dihydro-[3,4′]bipyridinyl-5-carboxylic acid methylamide], half-maximal inhibition (IC50) required 46 nM. Take `CNC(=O)c1cn(Cc2ccc(C#N)c(F)c2)c(C)c(-c2ccnc(C(F)(F)F)c2)c1=O` [Example 43, 1-(4-Cyano-3-fluoro-benzyl)-2-methyl-4-oxo-2′-trifluoromethyl-1,4-dihydro-[3,4′]bipyridinyl-5-carboxylic acid methylamide]: the IC50 is 48.4 nM. As for `CNC(=O)c1cn(Cc2ccc(C#N)cn2)c(C)c(-c2ccnc(C(F)(F)F)c2)c1=O` [Example 44, 1-(5-Cyano-pyridin-2-ylmethyl)-2-methyl-4-oxo-2′-trifluoromethyl-1,4-dihydro-[3,4′]bipyridinyl-5-carboxylic acid methylamide], the IC50 was found to be 94.6 nM.

Compound `Cc1c(-c2cccc(C(F)(F)F)c2)c(=O)c(C(=O)NCc2ccc(S(C)(=O)=O)cc2)cn1C1(c2ccc(C#N)cc2)CC1` [Example 45, 1-[1-(4-Cyano-phenyl)-cyclopropyl]-6-methyl-4-oxo-5-(3-trifluoromethyl-phenyl)-1,4-dihydro-pyridine-3-carboxylic acid 4-methanesulfonyl-benzylamide] came in with an IC50 of 4.6 nM. Compared with the last compound, the IC50 is about 21-fold lower. With `Cc1c(-c2cccc(C(F)(F)F)c2)c(=O)c(C(=O)NCC#N)cn1Cc1ccc(C#N)cc1` [Example 46, 1-(4-Cyano-benzyl)-6-methyl-4-oxo-5-(3-trifluoromethyl-phenyl)-1,4-dihydro-pyridine-3-carboxylic acid cyanomethyl-amide], 2.3 nM corresponded to half-maximal inhibition (IC50). Compound `COCCNC(=O)c1cn(C(C)c2ccc(C#N)cn2)c(C)c(-c2cccc(C(F)(F)F)c2)c1=O` (stereo not drawn) [Example 47.1] yielded an IC50 of 12.9 nM. The compound `Cc1c(-c2cccc(C(F)(F)F)c2)c(=O)c(C(=O)NC2CCNC2=O)cn1C(C)c1ccc(C#N)cn1` (stereo not drawn) [Example 47.2] gave an IC50 of 7.3 nM. On to `Cc1c(-c2cccc(C(F)(F)F)c2)c(=O)c(C(=O)NCC(F)(F)F)cn1C(C)c1ccc(C#N)cn1` (stereo not drawn) [Example 47.3], for which the IC50 came out at 10.7 nM. For the compound `Cc1c(-c2cccc(C(F)(F)F)c2)c(=O)c(C(=O)NCCC(C)O)cn1C(C)c1ccc(C#N)cn1` (stereo not drawn) [Example 47.4], half-maximal inhibition (IC50) required 12.2 nM. As to `Cc1c(-c2cccc(C(F)(F)F)c2)c(=O)c(C(=O)NCC2CC2)cn1C(C)c1ccc(C#N)cn1` (stereo not drawn) [Example 47.5], the IC50 came out at 16.7 nM. For the compound `Cc1c(-c2cccc(C(F)(F)F)c2)c(=O)c(C(=O)NCCF)cn1C(C)c1ccc(C#N)cn1` (stereo not drawn) [Example 47.6], inhibition was half-maximal at 12 nM (IC50).

Turning to `Cc1c(-c2cccc(C(F)(F)F)c2)c(=O)c(C(=O)NCC2(O)CC2)cn1C(C)c1ccc(C#N)cn1` (stereo not drawn) [Example 47.7], the IC50 came out at 30.1 nM.

Regarding `Cc1c(-c2cccc(C(F)(F)F)c2)c(=O)c(C(=O)NC2CCOC2)cn1C(C)c1ccc(C#N)cn1` (stereo not drawn) [Example 47.9], it took 67.2 nM to reach half-maximal inhibition (IC50). Then `Cc1c(-c2cccc(C(F)(F)F)c2)c(=O)c(C(=O)NC2CCOCC2)cn1C(C)c1ccc(C#N)cn1` (stereo not drawn) [Example 47.10], with 19.2 nM. In the case of `Cc1c(-c2cccc(C(F)(F)F)c2)c(=O)c(C(=O)NCC(C)(C)O)cn1C(C)c1ccc(C#N)cn1` (stereo not drawn) [Example 47.11], the midpoint of inhibition, the IC50, lay at 63.5 nM.

The compound `Cc1c(-c2cccc(C(F)(F)F)c2)c(=O)c(C(=O)NC2CCN(C)C2=O)cn1C(C)c1ccc(C#N)cn1` (stereo not drawn) [Example 47.12] yielded an IC50 of 7.3 nM. Compound `Cc1c(-c2cccc(C(F)(F)F)c2)c(=O)c(C(=O)NCc2ccc(S(C)(=O)=O)cc2)cn1C(C)c1ccc(C#N)cn1` (stereo not drawn) [Example 47.13] displayed a half-maximal inhibitory concentration (IC50) of less than 1 nM. As for `Cc1c(-c2cccc(C(F)(F)F)c2)c(=O)c(C(=O)NC(C)C#N)cn1C(C)c1ccc(C#N)cn1` (stereo not drawn) [Example 47.16], the IC50 turned out to be 6.2 nM. In other words, the single-digit nanomolar range. Regarding `Cc1c(-c2cccc(C(F)(F)F)c2)c(=O)c(C(=O)NC2(C#N)CC2)cn1C(C)c1ccc(C#N)cn1` (stereo not drawn) [Example 47.18], the IC50 turned out to be 6.4 nM. As for `Cc1c(-c2cccc(C(F)(F)F)c2)c(=O)c(C(=O)NCC(F)F)cn1C(C)c1ccc(C#N)cn1` (stereo not drawn) [Example 47.19], inhibition was half-maximal at 10.3 nM (IC50). On to `Cc1c(-c2cccc(C(F)(F)F)c2)c(=O)c(C(=O)NCC#N)cn1C(C)c1ccc(C#N)cn1` (stereo not drawn) [Example 47.20], for which the IC50 amounted to 2.5 nM.
